From paper doi:10.1101/2025.10.12.681846v1 (bioRxiv, 2025) come the findings set out here.

Data set [1] has as its system STZ-induced type 1 diabetic mice. Put plainly: Type 1 diabetes treatment study in mice. It is filed as in vivo, C57BL/6 mice.
The test system of a further data set is type 1 diabetic minipigs. Put plainly: Type 1 diabetes treatment study in minipigs. It is filed as in vivo, Bama minipigs.
For a further data set, the system named is type 1 diabetic mice. Put plainly: In vivo glucose-responsive insulin release in mice. As to conditions: 400 U/kg; i.p. glucose 3.0 g/kg at three and six hours; n = 5.
Data set [2] is described as follows: Biodistribution and intra-tissue distribution in diabetic mice. The note with it: three days after s.c. 10 mg/kg; CD31 staining. The format is in vivo.
The nature of data set [3]: SPECT/CT imaging of 131I-labelled insulin-129 in diabetic mice. The note with it: s.c. 10 mg/kg. It is filed as in vivo.

For insulin icodec [reference compound], the “duration relative to insulin-129 at 12 mg/kg” value in data set [1] (400 U/kg) is on record as “roughly one-third”. The time normoglycaemia maintained entry in data set [1] (single s.c. 400 U/kg (equivalent to 15.3 mg/kg), n = 5) is “approximately 72 hours”.

Take insulin glargine [reference compound]: the “glycaemic control with consecutive daily injections” value in data set [1] (40 U/kg every 24 hours for seven days, n = 5) is listed as “poor glycaemic control”. In addition, the time normoglycaemia maintained in data set [1] (single s.c. 40 U/kg (equivalent to 1.46 mg/kg), n = 5) amounted to 4 h; in data set [1] (single s.c. 400 U/kg (equivalent to 14.6 mg/kg), n = 5), 12 h. For the same substance, the “time BG regulated in the normal range” value in the data set with type 1 diabetic minipigs (Pig-Ⅰ, single dose 0.25 U/kg) is “less than 12 hours”; with type 1 diabetic minipigs (Pig-Ⅱ, single dose 0.33 U/kg), “less than 24 hours”; in the data set with type 1 diabetic minipigs (Pig-Ⅲ, single dose 0.48 U/kg), “less than 12 hours”. Also, in the data set with type 1 diabetic minipigs (n = 3, statistical time 0-168 h for insulin-129 and 0-24 h for Lantus), the “time BG remained within the target range (70 to 200 mg/dL)” value was found to be 42.9%. The “BG-correlated changes of insulin level” value in the data set with type 1 diabetic mice is given as “did not display BG-correlated changes”.

As to “Cy5-labelled insulin-129: insulin-129 labelled with Sulfo-Cy5-NHS”, the “vascular association within the major organs” value in data set [2] is listed as “high level of vascular association”.

As for “^131I-labelled insulin-129: insulin-129 labelled by 131I using the chloramine T labelling method”, the skin absorption entry in data set [3] is recorded as “rapid skin absorption”.
